Data: ChEMBL document CHEMBL1201862, “PubChem BioAssay data set” (2004)
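Interpolation was linear, between the two tested concentrations surrounding the appropriate level; five concentrations were tested over 48 hours in 96-well plates. GI50: concentration for 50% inhibition of growth.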 Activity calls are given as the source filed them. No stated cut-off is given here; in the data, active = GI50 up to about 1.1 µM and inactive = higher.

Key:
Assay in all cases: NCI anticancer screen, dose series, 48 h
[1] = system: 786-0
[2] = system: A498
[3] = system: A549
[4] = system: ACHN
[5] = system: BT-549
[6] = system: CAKI-1
[7] = system: CCRF-CEM
[8] = system: COLO 205
[9] = system: DU-145
[10] = system: EKVX
[11] = system: HCC 2998
[12] = system: HCT-116
[13] = system: HCT-15
[14] = system: HL-60
[15] = system: HOP-62
[16] = system: HOP-92
[17] = system: HT-29
[18] = system: Hs-578T
[19] = system: IGROV-1
[20] = system: K562
[21] = system: KM12
[22] = system: LOX IMVI
[23] = system: M14
[24] = system: MCF7
[25] = system: MDA-MB-231
[26] = system: MDA-MB-435
[27] = system: MDA-N
[28] = system: MOLT-4
[29] = system: Malme-3M
[30] = system: NCI-H226
[31] = system: NCI-H23
[32] = system: NCI-H460
[33] = system: NCI-H522
[34] = system: OVCAR-3
[35] = system: OVCAR-4
[36] = system: OVCAR-5
[37] = system: OVCAR-8
[38] = system: PC-3
[39] = system: RPMI-8226
[40] = system: RXF 393
[41] = system: SF-268
[42] = system: SF-295
[43] = system: SF-539
[44] = system: SK-MEL-28
[45] = system: SK-MEL-2
[46] = system: SK-MEL-5
[47] = system: SK-OV-3
[48] = system: SN12C
[49] = system: SNB-19
[50] = system: SNB-75
[51] = system: SR
[52] = system: SW-620
[53] = system: T47D
[54] = system: TK-10
[55] = system: U-251
[56] = system: UACC-257
[57] = system: UACC-62
[58] = system: UO-31
[59] = system: NCI/ADR-RES

COc1ccc2c(c1OC)C[C@@H]1c3c(cc4c(c3-2)OCO4)CCN1C
GI50 [1]: 24.2 µM (inactive) | GI50 [2]: 19.1 µM (inactive) | GI50 [3]: 40.2 µM (inactive) | GI50 [4]: 27.5 µM (inactive) | GI50 [5]: 23.8 µM (inactive) | GI50 [6]: 31.2 µM (inactive) | GI50 [7]: 20.3 µM (inactive) | GI50 [8]: 18.6 µM (inactive) | GI50 [9]: 41.1 µM (inactive) | GI50 [10]: 20.7 µM (inactive) | GI50 [11]: 21.3 µM (inactive) | GI50 [12]: 20.7 µM (inactive) | GI50 [13]: 22.6 µM | GI50 [14]: 8.63 µM (inactive) | GI50 [15]: 72.8 µM (inactive) | GI50 [16]: 12.3 µM (inactive) | GI50 [17]: 15.8 µM (inactive) | GI50 [18]: 34.4 µM (inactive) | GI50 [19]: 25.4 µM (inactive) | GI50 [20]: 20.3 µM (inactive) | GI50 [21]: 28.8 µM (inactive) | GI50 [22]: 15.3 µM (inactive) | GI50 [23]: 25.9 µM (inactive) | GI50 [24]: 16.6 µM (inactive) | GI50 [25]: 33.7 µM (inactive) | GI50 [26]: 27.5 µM (inactive) | GI50 [27]: 44.1 µM (inactive) | GI50 [28]: 24.3 µM (inactive) | GI50 [29]: 30.6 µM (inactive) | GI50 [30]: 18.1 µM (inactive) | GI50 [31]: 50.1 µM (inactive) | GI50 [32]: 32.1 µM (inactive) | GI50 [33]: 19.9 µM (inactive) | GI50 [34]: 41.1 µM (inactive) | GI50 [35]: 25.4 µM (inactive) | GI50 [36]: 59 µM (inactive) | GI50 [37]: 30.1 µM (inactive) | GI50 [38]: 17.5 µM (inactive) | GI50 [39]: 18.5 µM (inactive) | GI50 [40]: 20.5 µM (inactive) | GI50 [41]: 37.1 µM (inactive) | GI50 [42]: 15.6 µM (inactive) | GI50 [43]: 19 µM (inactive) | GI50 [44]: 29.2 µM (inactive) | GI50 [45]: 28.2 µM (inactive) | GI50 [46]: 16.7 µM (inactive) | GI50 [47]: 23.3 µM (inactive) | GI50 [48]: 42 µM (inactive) | GI50 [49]: 42.9 µM (inactive) | GI50 [50]: 17.1 µM (inactive) | GI50 [51]: 31.5 µM (inactive) | GI50 [52]: 29.8 µM (inactive) | GI50 [53]: 28.8 µM (inactive) | GI50 [54]: 25 µM (inactive) | GI50 [55]: 26.9 µM (inactive) | GI50 [56]: 20 µM (inactive) | GI50 [57]: 15.2 µM (inactive) | GI50 [58]: 10.8 µM (inactive)

CS(=O)(=O)c1ccc(NNc2cc(=O)[nH]c(=O)[nH]2)cc1
GI50 [1]: > 100 µM (inactive) | GI50 [2]: > 100 µM (inactive) | GI50 [3]: > 100 µM (inactive) | GI50 [4]: > 100 µM (inactive) | GI50 [5]: > 100 µM (inactive) | GI50 [6]: > 10 µM (inactive) | GI50 [7]: > 100 µM (inactive) | GI50 [8]: > 100 µM (inactive) | GI50 [9]: > 100 µM (inactive) | GI50 [11]: > 100 µM (inactive) | GI50 [12]: > 100 µM (inactive) | GI50 [13]: > 100 µM | GI50 [14]: 52.7 µM (inactive) | GI50 [15]: > 100 µM (inactive) | GI50 [16]: 47.8 µM (inactive) | GI50 [17]: > 100 µM (inactive) | GI50 [18]: > 100 µM (inactive) | GI50 [19]: > 100 µM (inactive) | GI50 [20]: > 100 µM (inactive) | GI50 [21]: > 100 µM (inactive) | GI50 [22]: > 100 µM (inactive) | GI50 [23]: > 100 µM (inactive) | GI50 [25]: > 100 µM (inactive) | GI50 [27]: > 100 µM (inactive) | GI50 [28]: > 100 µM (inactive) | GI50 [29]: > 100 µM (inactive) | GI50 [30]: > 100 µM (inactive) | GI50 [31]: > 100 µM (inactive) | GI50 [32]: > 100 µM (inactive) | GI50 [33]: 21.7 µM (inactive) | GI50 [59]: > 100 µM (inactive) | GI50 [34]: > 100 µM (inactive) | GI50 [35]: > 100 µM (inactive) | GI50 [36]: > 100 µM (inactive) | GI50 [38]: > 100 µM (inactive) | GI50 [39]: > 100 µM (inactive) | GI50 [40]: > 100 µM (inactive) | GI50 [41]: > 100 µM (inactive) | GI50 [42]: > 100 µM (inactive) | GI50 [43]: > 100 µM (inactive) | GI50 [44]: > 100 µM (inactive) | GI50 [45]: > 100 µM (inactive) | GI50 [46]: > 100 µM (inactive) | GI50 [47]: > 100 µM (inactive) | GI50 [48]: > 100 µM (inactive) | GI50 [49]: > 100 µM (inactive) | GI50 [50]: > 100 µM (inactive) | GI50 [51]: > 100 µM (inactive) | GI50 [52]: > 100 µM (inactive) | GI50 [53]: > 100 µM (inactive) | GI50 [54]: 0.0155 µM (active) | GI50 [55]: > 100 µM (inactive) | GI50 [56]: > 100 µM (inactive) | GI50 [57]: > 100 µM (inactive) | GI50 [58]: > 100 µM (inactive)

CSC1=N[C@H](c2ccccc2)CS1
GI50 [1]: > 100 µM (inactive) | GI50 [2]: > 100 µM (inactive) | GI50 [3]: > 100 µM (inactive) | GI50 [4]: > 100 µM (inactive) | GI50 [5]: > 100 µM (inactive) | GI50 [6]: > 100 µM (inactive) | GI50 [7]: > 100 µM (inactive) | GI50 [8]: > 100 µM (inactive) | GI50 [9]: > 100 µM (inactive) | GI50 [10]: > 100 µM (inactive) | GI50 [11]: > 100 µM (inactive) | GI50 [12]: > 100 µM (inactive) | GI50 [13]: > 100 µM | GI50 [15]: > 100 µM (inactive) | GI50 [17]: > 100 µM (inactive) | GI50 [18]: > 100 µM (inactive) | GI50 [19]: > 100 µM (inactive) | GI50 [20]: > 100 µM (inactive) | GI50 [21]: > 100 µM (inactive) | GI50 [23]: > 100 µM (inactive) | GI50 [24]: > 100 µM (inactive) | GI50 [26]: > 100 µM (inactive) | GI50 [27]: > 100 µM (inactive) | GI50 [28]: > 100 µM (inactive) | GI50 [31]: > 100 µM (inactive) | GI50 [32]: > 100 µM (inactive) | GI50 [59]: > 100 µM (inactive) | GI50 [34]: > 100 µM (inactive) | GI50 [35]: > 100 µM (inactive) | GI50 [36]: > 100 µM (inactive) | GI50 [38]: > 100 µM (inactive) | GI50 [39]: > 100 µM (inactive) | GI50 [42]: > 100 µM (inactive) | GI50 [43]: > 100 µM (inactive) | GI50 [44]: > 100 µM (inactive) | GI50 [45]: > 100 µM (inactive) | GI50 [46]: > 100 µM (inactive) | GI50 [48]: > 100 µM (inactive) | GI50 [49]: > 100 µM (inactive) | GI50 [50]: 2.8 µM (inactive) | GI50 [52]: > 100 µM (inactive) | GI50 [53]: > 100 µM (inactive) | GI50 [54]: > 100 µM (inactive) | GI50 [55]: > 100 µM (inactive) | GI50 [56]: > 100 µM (inactive) | GI50 [57]: > 100 µM (inactive) | GI50 [58]: > 100 µM (inactive)
